Patent US8828985B2, “Carbamate and urea inhibitors of 11-beta-hydroxysteroid dehydrogenase 1” (Vitae Pharmaceuticals, Inc., priority 2008, dated 2014)

Key:
[1] = target: T1, purified recombinant 11β-HSD1 (Homo sapiens, UniProt P28845); experiment: Biological Test Example 1: inhibition of purified 11β-HSD1, Scintillation Proximity Assay; format: biochemical; conditions: purified recombinant 11β-HSD1 (expressed in E. coli), SPA; read-out: Biological Test Example 1 IC50 Range
T1 construct: made in house; host or cells: E. coli
T1 sequence (P28845 whole entry, species assumed): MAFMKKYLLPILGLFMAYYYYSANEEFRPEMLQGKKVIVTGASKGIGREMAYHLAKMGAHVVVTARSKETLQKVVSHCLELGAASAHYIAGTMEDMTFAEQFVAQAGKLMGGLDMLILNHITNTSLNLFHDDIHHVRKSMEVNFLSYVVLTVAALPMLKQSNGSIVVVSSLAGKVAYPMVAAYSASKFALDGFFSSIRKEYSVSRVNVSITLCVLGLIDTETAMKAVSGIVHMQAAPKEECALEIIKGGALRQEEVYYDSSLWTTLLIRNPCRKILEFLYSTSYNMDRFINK
Protocol: The inhibition of purified 11β-HSD1 by compounds of Formula I is measured using a Scintillation Proximity Assay. […] The reaction is then incubated for 90 minutes, and stopped by adding 50 μl of SPA bead mix (18-β-glycyrrhetinic acid, 10 μM final, 5 mg/ml protein A coated YSi SPA beads, and 1 ug/ml α-cortisol antibody (East Coast Biologics)). The plate is shaken for 120 minutes, and the radioactivity corresponding to ^3H cortisol is measured on a Wallac Microbeta.

[2] = target: T2, human 11β-HSD1 (Homo sapiens, UniProt P28845); conditions: at 100 nm
T2 sequence (P28845 whole entry): as the sequence (P28845 whole entry, species assumed) above

[3] = target: T2, human 11β-HSD1; experiment: biochemical; conditions: Biological Test Example 2 IC50 Range, microsomes from CHO cells overexpressing human 11β-HSD1, SPA

IC50 [1] | SMILES | Biological Test Example 2 Average % inhibition at 100 nm [2] | IC50 [3]
< 100 nM | CC(C)(C)OC(=O)N[C@@H]1CCCN(C(=O)NC2C3CC4CC(C3)CC2C4)C1 (stereo partly drawn) [Example 56, (R)-tert-butyl 1-(2-adamantylcarbamoyl)piperidin-3-ylcarbamate] |  | 
< 100 nM | CC(C)(C)OC(=O)N[C@@H]1CCN(C(=O)NC2C3CC4CC(C3)CC2C4)C1 (stereo partly drawn) [Example 46, (R)-tert-butyl 1-(2-adamantylcarbamoyl)pyrrolidin-3-ylcarbamate] |  | 
100 to 1000 nM | CC(C)(C)OC(=O)NC1CCN(C(=O)NC2C3CC4CC(C3)CC2C4)CC1 (stereo not drawn) [Example 53, tert-butyl 1-(2-adamantylcarbamoyl)piperidin-4-ylcarbamate] |  | 
< 100 nM | CC(C)(C)OC(=O)N[C@H]1CCCN(C(=O)NC2C3CC4CC(C3)CC2C4)C1 (stereo partly drawn) [Example 57, (S)-tert-butyl 1-(2-adamantylcarbamoyl)piperidin-3-ylcarbamate] |  | 
100 to 1000 nM | COC(=O)N[C@@H]1CCN(C(=O)NC2C3CC4CC(C3)CC2C4)C1 (stereo partly drawn) [Example 48, (R)-methyl 1-(2-adamantylcarbamoyl)pyrrolidin-3-ylcarbamate] |  | 
< 100 nM | CC(C)(C)OC(=O)NC[C@@H]1CCN(C(=O)NC2C3CC4CC(C3)CC2C4)C1 (stereo partly drawn) [Example 54, (S)-tert-butyl (1-(2-adamantylcarbamoyl)pyrrolidin-3-yl)methylcarbamate] |  | 
100 to 1000 nM | CC(C)(C)OC(=O)N[C@H]1CCN(C(=O)NC2C3CC4CC(C3)CC2C4)C1 (stereo partly drawn) [Example 47, (S)-tert-butyl 1-(2-adamantylcarbamoyl)pyrrolidin-3-ylcarbamate] |  | 
< 100 nM | CC(C)(C)OC(=O)NC1CN(C(=O)NC2C3CC4CC(C3)CC2C4)C1 (stereo not drawn) [Example 51, tert-butyl 1-(2-adamantylcarbamoyl)azetidin-3-ylcarbamate] |  | 
< 100 nM | CC(C)(C)OC(=O)NCC1CN(C(=O)NC2C3CC4CC(C3)CC2C4)C1 (stereo not drawn) [Example 52, tert-butyl (1-(2-adamantylcarbamoyl)azetidin-3-yl)methylcarbamate] |  | 
 | CC(C)(C)OC(=O)NC1(Cc2ccccc2)CCN(C(=O)OC2C3CC4CC2CC(C(N)=O)(C4)C3)C1 (single isomer, unassigned) [Example 29 Isomer 1, (cis-1-carbamoyl-4-adamantyl) 3-benzyl-3-(tert-butoxycarbonylamino)pyrrolidine-1-carboxylate] | 41.2% | > 100 nM
< 100 nM | CN(C(=O)OC(C)(C)C)C1CCN(C(=O)NC2C3CC4CC(C3)CC2C4)C1 (stereo not drawn) [Example 55, tert-butyl 1-(2-adamantylcarbamoyl)pyrrolidin-3-yl(methyl)carbamate] |  | 
< 100 nM | CC(C)(C)OC(=O)N1CCC2CN(C(=O)OC3C4CC5CC(C4)CC3C5)CC21 (racemic) [Example 11, (±)-1-tert-butyl 5-(2-adamantyl) hexahydropyrrolo[3,4-b]pyrrole-1,5-dicarboxylate] |  | 

SMILES | IC50 [1] | Biological Test Example 2 Average % inhibition at 100 nm [2] | IC50 [3]
CC(C)(C)OC(=O)N[C@@H]1CCCN(C(=O)OC2C3CC4CC(C3)CC2C4)C1 (stereo partly drawn) [Example 8, (3R)-(2-adamantyl) 3-(tert-butoxycarbonylamino)piperidine-1-carboxylate] | < 100 nM |  | 
CC(C)(C)OC(=O)NCC1CN(C(=O)OC2C3CC4CC(C3)CC2C4)C1 (stereo not drawn) [Example 1, 2-adamantyl 3-((tert-butoxycarbonylamino)methyl)azetidine-1-carboxylate] | < 100 nM |  | 
